These results are taken from US12576169B2, “Silicon-fluoride acceptor substituted radiopharmaceuticals and precursors thereof” (Technische Universität München, priority 2019, dated 2026).

Where two headings read alike, the source gives them in different places.

For one series, the target named is PSMA (Homo sapiens, UniProt Q04609). The experiment in a line: IC50 determination: PSMA binding affinity, competition with [125I]XII on LNCaP cells.
Series [1] in a line: n-Octanol-PBS partition coefficient (logD7.4). Format: physicochemical. The conditions noted are these: 18F-labeled ligand; n-octanol/PBS pH=7.4; mean ± SD (n = 5). The method, then: Approx. 0.5 MBq of the ^18F-labeled SiFA-PSMA ligand were added into a test tube containing n-octanol (500 μL) and PBS (500 μL, pH=7.4). After vigorously shaking the two-phase mixture for 3 min at rt, the test tube was centrifuged at 9.000 rpm for 5 min to achieve quantitative phase separation. Finally, 150 μL of each layer were pipetted off and measured for activity using a gamma counter. After repeating the experiment for at least five times, the n-octanol-PBS partition coefficient log D7.4 was calculated according to following formula.

A further series deals with LNCaP cells. The experiment in a line: Internalization of 18F-labeled ligands into LNCaP cells. In kind it is cell-based, human. The conditions noted are these: internalized activity at 1 h in % of reference [125I]XII; c = 0.5 nM; LNCaP cells (125.000 cells/well); 37° C., DMEM/F-12 add. 5% BSA; corrected for non-specific binding (10 μm PMPA); mean ± SD (n = 3). The method, then: LNCaP cells were grown in DMEM/F-12 (add. 10% FCS, v/v) and maintained at 37° C. in a humidified 5% CO2 atmosphere. […] Subsequent to the removal of the culture medium, cells were washed with DMEM-F12 (add. 5% BSA, v/v, 500 μL) and left to equilibrate in DMEM-F12 (add. 5% BSA, v/v, 200 μL) at 37° C. for 15 min. Each well was treated with either DMEM-F12 (add. 5% BSA, v/v, 25 μL) or a 2-(phosphonomethyl)-pentandioic acid (PMPA) solution (100 μM in PBS, 25 μL) for blockade. Afterwards, the ^18F-labeled SiFA-PSMA ligand (5 nM in PBS, 25 μL) was added and the cells were incubated for 1 h at 37° C. The experiment was terminated by placing the 24-well plate on ice for 3 min and removal of the assay medium. Each well was rinsed with HBSS (4° C., 250 μL) and the fractions were combined with the previous assay medium, representing the amount of unbound radioligand. For removal of surface bound activity, LNCaP cells were incubated with PMPA solution (10 μM in PBS, 4° C., 250 μL) for 5 min and rinsed again with PBS (250 μL, 4° C.). The internalized activity was determined by incubation of LNCaP cells with 1 M aq. NaOH (250 μL) for at least 10 min and combination with the fraction of a subsequent wash step with 1 M aq. NaOH (200 μL). Each experiment (control and blockade) was performed in triplicate. […] All internalization studies were accompanied by reference studies using the reference compound XII (2 nM in HBSS add. 1% BSA, v/v), which were performed analogously. Data were corrected for non-specific internalization and normalized to the specific-internalization observed for the radioiodinated reference compound.

Series [2] deals with T1, human serum albumin (HSA) (Homo sapiens, UniProt P02768).
T1 construct: purchased H13H-2433
The experiment in a line: Binding to HSA on a Chiralpak HSA column. In kind it is in vitro ADME. The conditions noted are these: calibration with nine reference substances. The method, then: For the determination of human serum albumin (HSA) binding, a Chiralpak HSA column (50×3 mm, 5 μm, H13H-2433) was used at a constant flow rate of 0.5 mL/min. The mobile phase composed of a 50 mM NH4OAc solution in water with pH=7 (solvent C) and isopropanol (solvent D) was freshly prepared for each experiment and used only once. The reference substances (Table 1) as well as the analyzed SiFA-PSMA ligands were dissolved in a mixture of solvent C/solvent D (1:1, v/v, 0.5 mg/mL) and eluted from the HSA column (0-3 min: 100% C, 3-20 min: 20% D in C, λ=254 nm). The column was kept at rt and each run was stopped after detection of the signal to reduce the acquisition time. The nine reference substances display an HSA binding range of 13% to 99% and were injected consecutively in order to establish a sigmoidal calibration curve with the software OriginPro 2018b (FIG. 1).

Where [3] appears, read: LNCaP cells (150.000 cells/well), reference [125I]XII c = 0.2 nM, 1 h, 4° C., HBSS add. 1% BSA, mean ± SD (n = 3).

Chain of PSMA (Q04609 whole entry): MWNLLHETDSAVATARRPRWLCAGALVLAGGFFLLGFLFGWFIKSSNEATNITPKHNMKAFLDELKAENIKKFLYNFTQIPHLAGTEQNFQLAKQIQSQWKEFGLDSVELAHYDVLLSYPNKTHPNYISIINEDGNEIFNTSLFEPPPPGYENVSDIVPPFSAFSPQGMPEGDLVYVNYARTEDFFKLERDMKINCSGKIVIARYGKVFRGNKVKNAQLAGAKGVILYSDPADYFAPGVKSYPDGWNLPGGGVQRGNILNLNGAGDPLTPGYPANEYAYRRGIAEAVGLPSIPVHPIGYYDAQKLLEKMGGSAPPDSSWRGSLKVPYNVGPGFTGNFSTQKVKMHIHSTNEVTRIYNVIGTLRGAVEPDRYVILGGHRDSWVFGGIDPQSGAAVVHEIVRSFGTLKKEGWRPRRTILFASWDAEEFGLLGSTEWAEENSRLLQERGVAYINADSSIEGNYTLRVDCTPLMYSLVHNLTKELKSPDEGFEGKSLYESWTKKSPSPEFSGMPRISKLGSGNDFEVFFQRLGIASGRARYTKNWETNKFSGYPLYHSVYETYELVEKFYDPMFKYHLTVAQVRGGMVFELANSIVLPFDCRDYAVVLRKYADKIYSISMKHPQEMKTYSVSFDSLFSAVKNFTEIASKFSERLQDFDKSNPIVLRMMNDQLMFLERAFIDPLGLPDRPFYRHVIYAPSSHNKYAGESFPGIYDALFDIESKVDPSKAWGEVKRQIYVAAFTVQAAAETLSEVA
T1 sequence (P02768 25-609): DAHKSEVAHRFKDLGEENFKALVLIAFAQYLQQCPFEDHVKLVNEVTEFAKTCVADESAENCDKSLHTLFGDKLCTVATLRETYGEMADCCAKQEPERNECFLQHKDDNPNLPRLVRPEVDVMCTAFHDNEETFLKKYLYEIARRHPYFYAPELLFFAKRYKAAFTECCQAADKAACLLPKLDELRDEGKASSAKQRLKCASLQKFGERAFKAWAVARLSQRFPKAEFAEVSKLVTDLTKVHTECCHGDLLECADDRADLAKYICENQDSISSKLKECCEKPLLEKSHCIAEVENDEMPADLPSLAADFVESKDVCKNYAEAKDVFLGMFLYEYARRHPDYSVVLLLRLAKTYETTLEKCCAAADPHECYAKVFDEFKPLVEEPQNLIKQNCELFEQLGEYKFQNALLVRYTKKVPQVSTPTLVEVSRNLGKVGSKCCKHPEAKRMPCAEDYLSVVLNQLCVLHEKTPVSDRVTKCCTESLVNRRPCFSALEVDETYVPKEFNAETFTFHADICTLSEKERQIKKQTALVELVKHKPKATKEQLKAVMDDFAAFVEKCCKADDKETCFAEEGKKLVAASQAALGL
Protocol for PSMA: LNCaP cells were grown in Dulbecco's Modified Eagle Medium/Nutrient Mixture F-12 (DMEM/F-12, add. 10% fetal calf serum (FCS), v/v) and maintained at 37° C. in a humidified 5% CO2 atmosphere. […] After removal of the culture medium, LNCaP cells were treated with HBSS (add. 1% BSA, v/v, 4° C., 500 μL) and subsequently left 15 min on ice for equilibration in HBSS (add. 1% BSA, v/v, 4° C., 200 μL). […] For the control series, HBSS (add. 1% BSA, v/v, 25 μL) was used instead of the SiFA-PSMA ligand solution. Each concentration and the control were prepared in triplicate. After 1 h incubation on ice, the assay medium was removed and cells were washed with HBSS (200 μL, 4° C.). […] NaOH (200 μL) for at least 10 min and the resulting cell lysate was removed. The wells were treated again with 1 M aq. […] The experiment was repeated for at least three times and the IC50 value calculated using the GraphPad PRISM 8.0.2 software (Graphpad Software Inc., La Jolla, United States).

One may read the IC50 as the concentration at which inhibition is half-maximal. A high value points to a need for much substance. Compound `CC(C)(C)[Si](F)(c1ccc(C(=O)NC[C@@H](NC(=O)[C@@H](CC(=O)O)NC(=O)CC[C@H](NC(=O)N[C@@H](CCC(=O)O)C(=O)O)C(=O)O)C(=O)N[C@H](CCCCNC(=O)CCC(=O)NCCC[C@@H](NC(=O)CC[C@H](NC(=O)N[C@@H](CCC(=O)O)C(=O)O)C(=O)O)C(=O)O)C(=O)O)cc1)C(C)(C)C` [SiFA-PSMA ligand 01 a] came in with an IC50 on PSMA (setting [3]) of 7.8 ± 0.8 nM. For the same compound, in series [1], the logD7.4 is reported as −4.02 ± 0.04. Besides, in the series with LNCaP cells, the Internalization is given as 162.54 ± 7.08%. Besides, in series [2], the “Binding to HSA” value was at least 99.0%.
The corresponding values for `CC(C)(C)[Si](F)(c1ccc(C(=O)NC[C@@H](NC(=O)[C@@H](CCC(=O)O)NC(=O)CC[C@H](NC(=O)N[C@@H](CCC(=O)O)C(=O)O)C(=O)O)C(=O)N[C@H](CCCCNC(=O)CCC(=O)NCCC[C@@H](NC(=O)CC[C@H](NC(=O)N[C@@H](CCC(=O)O)C(=O)O)C(=O)O)C(=O)O)C(=O)O)cc1)C(C)(C)C` [SiFA-PSMA ligand 01 b] are 11.8 ± 2.2 nM, −4.04 ± 0.08, 126.43 ± 4.23% and at least 99.0%.
The corresponding values for `CC(C)(C)[Si](F)(c1ccc(C(=O)NC[C@@H](NC(=O)[C@H](CCC(=O)O)NC(=O)CC[C@H](NC(=O)N[C@@H](CCC(=O)O)C(=O)O)C(=O)O)C(=O)N[C@H](CCCCNC(=O)CCC(=O)NCCC[C@@H](NC(=O)CC[C@H](NC(=O)N[C@@H](CCC(=O)O)C(=O)O)C(=O)O)C(=O)O)C(=O)O)cc1)C(C)(C)C` [SiFA-PSMA ligand 01 c] are 17 ± 0.9 nM, −3.72 ± 0.02, 175.08 ± 5.93% and at least 98.9%.
The corresponding values for `CC(C)(C)[Si](F)(c1ccc(C(=O)NC[C@@H](NC(=O)[C@@H](CCCNC(N)=O)NC(=O)CC[C@H](NC(=O)N[C@@H](CCC(=O)O)C(=O)O)C(=O)O)C(=O)N[C@H](CCCCNC(=O)CCC(=O)NCCC[C@@H](NC(=O)CC[C@H](NC(=O)N[C@@H](CCC(=O)O)C(=O)O)C(=O)O)C(=O)O)C(=O)O)cc1)C(C)(C)C` [SiFA-PSMA ligand 01 d] are 13 ± 1.2 nM, −3.28 ± 0.03, 95.68 ± 9.86% and at least 98.9%.
`CC(C)(C)[Si](F)(c1ccc(C(=O)NC[C@@H](NC(=O)[C@@H](CN)NC(=O)CC[C@H](NC(=O)N[C@@H](CCC(=O)O)C(=O)O)C(=O)O)C(=O)N[C@H](CCCCNC(=O)CCC(=O)NCCC[C@@H](NC(=O)CC[C@H](NC(=O)N[C@@H](CCC(=O)O)C(=O)O)C(=O)O)C(=O)O)C(=O)O)cc1)C(C)(C)C` [SiFA-PSMA ligand 01 e]: the IC50 on PSMA (setting [3]) turned out to be 9.2 ± 1.4 nM. Besides, the logD7.4 in series [1] is recorded as −3.96 ± 0.07. In the series on LNCaP cells, the Internalization came out at 125.13 ± 1.14%. The “Binding to HSA” value in series [2] is at least 99.0%.
The corresponding values for `CC(C)(C)[Si](F)(c1ccc(C(=O)NC[C@@H](NC(=O)[C@@H](CCCN)NC(=O)CC[C@H](NC(=O)N[C@@H](CCC(=O)O)C(=O)O)C(=O)O)C(=O)N[C@H](CCCCNC(=O)CCC(=O)NCCC[C@@H](NC(=O)CC[C@H](NC(=O)N[C@@H](CCC(=O)O)C(=O)O)C(=O)O)C(=O)O)C(=O)O)cc1)C(C)(C)C` [SiFA-PSMA ligand 01 f] are 8.3 ± 1.5 nM, −3.65 ± 0.09, 123.13 ± 2.14% and 98.9%.
Regarding `CC(C)(C)[Si](F)(c1ccc(C(=O)N[C@H](CC(=O)N[C@H](CC(=O)NCCC[C@@H](NC(=O)c2cc(C(=O)O)cc(C(=O)O)c2)C(=O)NCCCC[C@@H](NC(=O)CC[C@H](NC(=O)N[C@@H](CCC(=O)O)C(=O)O)C(=O)O)C(=O)O)C(=O)O)C(=O)N[C@H](CC(=O)NCCC[C@@H](NC(=O)c2cc(C(=O)O)cc(C(=O)O)c2)C(=O)NCCCC[C@@H](NC(=O)CC[C@H](NC(=O)N[C@@H](CCC(=O)O)C(=O)O)C(=O)O)C(=O)O)C(=O)O)cc1)C(C)(C)C` [SiFA-PSMA ligand 07], on PSMA, the IC50 was found to be 5.5 ± 0.6 nM. The logD7.4 in series [1] is recorded as −3.45 ± 0.01. In the series on LNCaP cells, the Internalization is listed as 311.75 ± 7.30%.
